Laboratory results from US9242993B2, “Morpholino substituted bicyclic pyrimidine urea or carbamate derivatives as mTOR inhibitors” (CELLZOME LIMITED, priority 2011, dated 2016).

Tests used:
mTOR = mTOR (Homo sapiens, UniProt P42345); assay: biochemical
[1] = target: DNA-dependent protein kinase (DNA-PK) (Homo sapiens, UniProt P78527); assay: biochemical
[2] = tested on: Akt serine-473 phosphorylation; assay: In vitro phospho-Akt cellular assay; format: cell-based; settings: Homo sapiens; HEK293T/17 cells, 2 hours; read-out: pAkt inhibition value (IC50), activity level
Description: Activation of mTOR signaling results in phosphorylation of several downstream targets. In cells, mTOR exists in two different protein complexes. The mTOR Complex-1 (mTORC1) phosphorylates and activates S6 Kinase 1 (S6K1) and S6 Kinase 2 (S6K2) (also known as p70S6K) which then phosphorylate S6 Ribosomal Protein (S6RP) (also known as RPS6)3. S6RP is phosphorylated on serine 235, serine 236, serine 240 and serine 244 by both pS6K1 and pS6K2. The mTOR Complex-2 (mTORC2) phosphorylates AKT on serine 473 which activates the AKT signaling pathway.
The assay measures a test compound's inhibition of S6RP serine-240/244 phosphorylation and inhibition of Akt serine-473 phosphorylation in human embryonic kidney derived HEK293T/17 cells (ATCC CRL-11268).
The HEK293T/17 cell line is maintained in DMEM media (Invitrogen catalogue number 41965-039) supplemented with 10% FCS at 37° C. in a 5% CO2 humidified incubator.
Cells are seeded in 96-well plates at 40,000 cells/well (pS6RP S240/244 assay) or 80,000 cells/well (pAkt S473 assay) in 90 μl growth media (DMEM, 2% FCS). Plates are incubated for 1 hour in a humidified incubator to allow the cells to adhere. Cells are treated with 8 concentrations of test compounds or DMSO alone for controls (final DMSO concentration 0.1%) and incubated at 37° C. for 2 hours. Then 20 μl of 5× concentrated lysis buffer (750 mM NaCl, 100 mM Tris pH7.4, 5 mM ADTA, 5 mM EGTA, 5% Triton X-100) is added, plates are sealed and incubated for 15 minutes at 4° C. with gentle shaking. After cell lysis, 25 μl cell lysate is transferred to a MesoScale plate coated with an antibody to pS6RP Ser240/244 (MesoScale Discovery K150DGD-3) or an antibody to pAkt Ser 473 (MesoScale Discovery K151DGD-3). Plates have been blocked before by incubation with 150 μl MesoScale Discovery Blocking Solution-A for 1 hour at room temperature followed by washing with 150 μl 1× Tris wash buffer per well. After the transfer of the cell lysate to the MSD plate, the pS6RP (or pAkt) protein is captured on the coated antibody by incubation at room temperature for 1 hour with gentle shaking. After the capture step the plate is washed three times with 150 μl of 1× Tris wash buffer per well. Then 25 μl detection antibody conjugated with a Sulfo-Tag is added and incubated for 1 hour at room temperature with gentle shaking. Subsequently the antibody solution is removed and the plate is washed 3 times with 150 μl 1× Tris wash buffer per well and 150 μl Read buffer is added. The plates are analysed on a MSD 2400 Plate Reader (MesoScale Discovery). Data analysis is performed using nonlinear regression for a sigmoidal dose-response with a variable slope.

[3] = tested on: S6RP serine-240/244 phosphorylation; assay: In vitro phospho-S6 cellular assay; format: cell-based; settings: Homo sapiens; HEK293T/17 cells, 2 hours; read-out: pS6 inhibition value (IC50), activity level
Method in brief: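 HEK293T/17 cells (40,000/well for pS6RP, 80,000/well for pAkt) in DMEM, 2% FCS treated 2 h at 37 °C with 8 compound concentrations (0.1% DMSO). Lysates assayed by MesoScale sandwich electrochemiluminescence for pS6RP Ser240/244 or pAkt Ser473. Curves fitted by sigmoidal variable-slope regression.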

[4] = Bi-directional Caco-2 permeability assay; format: in vitro ADME; settings: human, pH 7.4, Caco-2, 10 uM, pH7.4, read-out: Efflux ratio (ER), Papp B>A/Papp A>B
Protocol: Bi-directional Caco-2 assays to assess the permeability of compounds in the gi tract, were performed as described below.
2×10^5 cells/well were seeded in plating medium consisting of DMEM+GlutaMAXI+1% NEAA+10% FBS (FetalClone II)+1% Pen/Strep. The medium was changed every 2-3 days.
50 uM Lucifer Yellow (Sigma) was added to the donor buffer in all wells to assess integrity of the cell layers by monitoring Lucifer Yellow permeation. As Lucifer Yellow (LY) cannot freely permeate lipophilic barriers, a high degree of LY transport indicates poor integrity of the cell layer. After a 1 hr incubation at 37° C. while shaking at an orbital shaker at 150 rpm, 70 ul aliquots were taken from both apical (A) and basal (B) chambers and added to 100 ul 50:50 acetonitrile:water solution containing analytical internal standard (0.5 uM carbamazepine) in a 96 well plate.
Concentrations of compound in the samples were measured by high performance liquid-chromatography/mass spectroscopy (LC-MS/MS).
The Efflux ratio, as an indication of active efflux from the apical cell surface of Caco-2 cells, was calculated using the ratio of Papp B>A/Papp A>B.

[5] = tested on: IFNγ release in whole blood; assay: In vitro human whole blood assay (IFNγ release); format: cell-based; settings: αCD3/αCD28 and IL-2 stimulation, 18 hours, read-out: WB inhibition value (pIC50) (converted)
Method in brief: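 Na-heparin human whole blood, diluted 1.4-fold in RPMI, was preincubated 1 h at 37° C with 10 compound concentrations (0.2% DMSO), then stimulated with 1 μg/ml αCD3, 1 μg/ml αCD28 and 10 ng/ml IL-2 for 18 h. Plasma IFNγ quantified by MesoScale electrochemiluminescence immunoassay; values from variable-slope sigmoidal dose-response fit.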

Sequence of DNA-dependent protein kinase (DNA-PK) (P78527 whole entry): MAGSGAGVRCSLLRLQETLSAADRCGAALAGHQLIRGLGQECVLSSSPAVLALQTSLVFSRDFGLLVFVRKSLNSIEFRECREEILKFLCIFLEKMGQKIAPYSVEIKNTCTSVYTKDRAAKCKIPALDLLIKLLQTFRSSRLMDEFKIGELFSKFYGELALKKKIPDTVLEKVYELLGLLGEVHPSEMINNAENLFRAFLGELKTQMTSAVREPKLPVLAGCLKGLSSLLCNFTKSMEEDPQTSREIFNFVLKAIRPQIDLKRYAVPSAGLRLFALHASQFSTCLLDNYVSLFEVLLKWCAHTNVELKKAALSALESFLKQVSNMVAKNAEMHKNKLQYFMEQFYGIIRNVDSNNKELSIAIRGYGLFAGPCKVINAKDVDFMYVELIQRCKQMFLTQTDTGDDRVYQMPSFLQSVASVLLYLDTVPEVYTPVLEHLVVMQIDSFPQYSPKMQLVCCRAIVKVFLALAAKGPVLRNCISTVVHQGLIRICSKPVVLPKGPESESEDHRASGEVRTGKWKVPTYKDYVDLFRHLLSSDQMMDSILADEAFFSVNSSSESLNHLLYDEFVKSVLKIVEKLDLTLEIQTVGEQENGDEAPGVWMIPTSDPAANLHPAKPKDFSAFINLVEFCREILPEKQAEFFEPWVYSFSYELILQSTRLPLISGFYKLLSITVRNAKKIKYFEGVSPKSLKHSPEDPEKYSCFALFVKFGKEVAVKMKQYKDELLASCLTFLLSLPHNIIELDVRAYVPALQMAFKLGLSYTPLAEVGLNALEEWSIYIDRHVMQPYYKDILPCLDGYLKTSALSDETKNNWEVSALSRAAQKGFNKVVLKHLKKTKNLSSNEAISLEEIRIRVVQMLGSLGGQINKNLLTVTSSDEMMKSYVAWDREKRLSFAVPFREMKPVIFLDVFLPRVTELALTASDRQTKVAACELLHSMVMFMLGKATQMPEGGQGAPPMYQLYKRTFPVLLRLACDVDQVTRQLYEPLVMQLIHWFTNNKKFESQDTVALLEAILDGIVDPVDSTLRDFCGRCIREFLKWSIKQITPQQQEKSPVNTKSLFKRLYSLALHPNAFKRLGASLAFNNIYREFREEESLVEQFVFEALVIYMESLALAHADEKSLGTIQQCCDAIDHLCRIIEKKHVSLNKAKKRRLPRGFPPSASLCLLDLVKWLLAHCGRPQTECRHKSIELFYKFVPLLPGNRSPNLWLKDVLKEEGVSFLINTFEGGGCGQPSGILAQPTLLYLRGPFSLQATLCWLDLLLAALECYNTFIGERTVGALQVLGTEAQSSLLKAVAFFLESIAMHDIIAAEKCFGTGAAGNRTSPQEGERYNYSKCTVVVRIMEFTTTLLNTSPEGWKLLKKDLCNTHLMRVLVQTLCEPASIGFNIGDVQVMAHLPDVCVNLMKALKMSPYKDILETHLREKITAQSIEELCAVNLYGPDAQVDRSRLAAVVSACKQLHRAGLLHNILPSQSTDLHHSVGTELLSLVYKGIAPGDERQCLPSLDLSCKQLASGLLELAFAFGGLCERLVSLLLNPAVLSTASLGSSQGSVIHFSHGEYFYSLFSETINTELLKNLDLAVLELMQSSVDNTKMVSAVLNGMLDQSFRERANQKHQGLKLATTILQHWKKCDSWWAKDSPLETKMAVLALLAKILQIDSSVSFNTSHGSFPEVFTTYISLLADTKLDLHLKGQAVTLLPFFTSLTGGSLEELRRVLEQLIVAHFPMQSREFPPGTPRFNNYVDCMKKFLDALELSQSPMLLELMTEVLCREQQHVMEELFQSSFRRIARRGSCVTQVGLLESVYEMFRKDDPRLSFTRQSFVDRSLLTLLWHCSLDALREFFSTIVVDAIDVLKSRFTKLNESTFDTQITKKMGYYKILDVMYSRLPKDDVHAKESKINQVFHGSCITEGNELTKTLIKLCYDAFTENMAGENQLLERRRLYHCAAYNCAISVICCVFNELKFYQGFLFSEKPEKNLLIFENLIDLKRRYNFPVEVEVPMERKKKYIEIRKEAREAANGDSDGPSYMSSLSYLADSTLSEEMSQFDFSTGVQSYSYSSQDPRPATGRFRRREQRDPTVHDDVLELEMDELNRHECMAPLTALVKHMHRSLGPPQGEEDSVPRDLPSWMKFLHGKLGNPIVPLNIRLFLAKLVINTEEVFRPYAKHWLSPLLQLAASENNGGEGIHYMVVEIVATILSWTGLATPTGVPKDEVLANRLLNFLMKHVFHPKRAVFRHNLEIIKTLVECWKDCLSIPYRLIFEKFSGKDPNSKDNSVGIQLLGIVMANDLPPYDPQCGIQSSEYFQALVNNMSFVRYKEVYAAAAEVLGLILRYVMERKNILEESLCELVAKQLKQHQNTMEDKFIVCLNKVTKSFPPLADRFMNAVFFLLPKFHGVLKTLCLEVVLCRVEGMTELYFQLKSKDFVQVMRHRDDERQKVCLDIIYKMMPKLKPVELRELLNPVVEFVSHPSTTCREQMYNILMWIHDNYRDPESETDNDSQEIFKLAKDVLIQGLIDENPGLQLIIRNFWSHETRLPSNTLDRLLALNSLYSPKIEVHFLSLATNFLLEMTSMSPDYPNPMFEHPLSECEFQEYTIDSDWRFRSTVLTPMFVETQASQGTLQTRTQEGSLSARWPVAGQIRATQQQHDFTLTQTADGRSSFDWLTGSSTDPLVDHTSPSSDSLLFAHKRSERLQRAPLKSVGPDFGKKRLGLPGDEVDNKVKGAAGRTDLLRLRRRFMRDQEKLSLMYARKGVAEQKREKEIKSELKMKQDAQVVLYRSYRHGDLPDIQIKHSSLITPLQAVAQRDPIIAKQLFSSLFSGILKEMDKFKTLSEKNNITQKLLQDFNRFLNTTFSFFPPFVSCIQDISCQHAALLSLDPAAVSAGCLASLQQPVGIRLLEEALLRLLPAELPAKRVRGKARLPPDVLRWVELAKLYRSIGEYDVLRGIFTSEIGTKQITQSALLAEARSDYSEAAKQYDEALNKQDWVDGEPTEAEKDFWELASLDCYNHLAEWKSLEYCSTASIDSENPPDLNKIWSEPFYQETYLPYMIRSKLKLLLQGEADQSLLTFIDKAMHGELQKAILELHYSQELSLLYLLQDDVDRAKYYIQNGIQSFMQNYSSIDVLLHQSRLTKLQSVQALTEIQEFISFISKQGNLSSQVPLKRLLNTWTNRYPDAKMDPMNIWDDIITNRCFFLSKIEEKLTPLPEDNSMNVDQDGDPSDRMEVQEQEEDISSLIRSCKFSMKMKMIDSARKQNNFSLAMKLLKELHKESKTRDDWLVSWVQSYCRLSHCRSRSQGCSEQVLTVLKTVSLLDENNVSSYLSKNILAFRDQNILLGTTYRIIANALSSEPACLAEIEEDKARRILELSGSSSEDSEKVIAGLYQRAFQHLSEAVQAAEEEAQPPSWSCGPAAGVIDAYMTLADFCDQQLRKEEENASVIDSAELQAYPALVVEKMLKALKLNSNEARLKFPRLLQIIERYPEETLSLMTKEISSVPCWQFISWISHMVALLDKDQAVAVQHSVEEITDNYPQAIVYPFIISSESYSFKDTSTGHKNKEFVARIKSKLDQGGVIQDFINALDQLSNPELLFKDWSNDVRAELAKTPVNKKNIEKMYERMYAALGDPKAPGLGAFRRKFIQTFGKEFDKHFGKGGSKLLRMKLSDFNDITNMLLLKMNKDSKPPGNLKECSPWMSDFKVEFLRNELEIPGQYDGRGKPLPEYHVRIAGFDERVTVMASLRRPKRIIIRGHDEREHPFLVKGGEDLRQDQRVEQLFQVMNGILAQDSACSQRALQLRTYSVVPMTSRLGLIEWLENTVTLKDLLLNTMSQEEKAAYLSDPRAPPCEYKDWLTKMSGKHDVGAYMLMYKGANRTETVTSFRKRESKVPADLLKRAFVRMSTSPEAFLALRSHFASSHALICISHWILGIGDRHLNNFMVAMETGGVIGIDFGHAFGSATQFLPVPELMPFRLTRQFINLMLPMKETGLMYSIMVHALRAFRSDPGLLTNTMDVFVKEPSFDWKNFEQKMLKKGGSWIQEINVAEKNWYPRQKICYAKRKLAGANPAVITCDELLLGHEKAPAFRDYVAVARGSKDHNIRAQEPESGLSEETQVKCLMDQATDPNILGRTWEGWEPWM

SMILES | IC50 (mTOR) | IC50 [1] | IC50 [2] | IC50 [3] | IC50 [5] | efflux ratio at 1 h, 10 uM [4]
CCNC(=O)Nc1ccc(-c2nc(N3CCOC[C@@H]3C)c3c(n2)C(C)(C)S(=O)(=O)C3)cc1 [Example 62, (S)-1-(4-(7,7-dimethyl-4-(3-methylmorpholino)-6,6-dioxido-5,7-dihydrothieno[3,4-d]pyrimidin-2-yl)phenyl)-3-ethylurea] |  | > 10000 nM |  | < 100 nM | 200 nM | 22
CC[C@H]1COCCN1c1nc(-c2ccc(NC(=O)NC)c(F)c2)nc2c1CS(=O)(=O)C2(C)C [Example 64, (S)-1-(4-(4-(3-ethylmorpholino)-7,7-dimethyl-6,6-dioxido-5,7-dihydrothieno[3,4-d]pyrimidin-2-yl)-2-fluorophenyl)-3-methylurea] | 100 to 1000 nM | > 10000 nM |  | < 100 nM | 158 nM | 
CNC(=O)Nc1ccc(-c2nc(N3CCOC[C@@H]3C)c3c(n2)C(C)(C)S(=O)(=O)C3)c(F)c1 [Example 66, (S)-1-(4-(7,7-dimethyl-4-(3-methylmorpholino)-6,6-dioxido-5,7-dihydrothieno[3,4-d]pyrimidin-2-yl)-3-fluorophenyl)-3-methylurea] | < 100 nM | > 10000 nM |  | < 100 nM | 1000 nM | 
C[C@H]1COCCN1c1nc(-c2ccc(NC(=O)NC3COC3)cc2)nc2c1CS(=O)(=O)C2(C)C [Example 68, (S)-1-(4-(7,7-dimethyl-4-(3-methylmorpholino)-6,6-dioxido-5,7-dihydrothieno[3,4-d]pyrimidin-2-yl)phenyl)-3-(oxetan-3-yl)urea] | 100 to 1000 nM | > 10000 nM |  | < 100 nM | 316 nM | 
CNC(=O)Nc1ccc(-c2nc3c(c(N4CCOC[C@@H]4C)n2)C(C)S(=O)(=O)C3)cc1 (stereo partly drawn) [Example 58, 1-methyl-3-(4-(5-methyl-4-((S)-3-methylmorpholino)-6,6-dioxido-5,7-dihydrothieno[3,4-d]pyrimidin-2-yl)phenyl)urea] | < 100 nM | > 10000 nM |  | < 100 nM | 251 nM | 
CCNC(=O)Nc1ccc(-c2nc3c(c(N4CCOC[C@@H]4CC)n2)CS(=O)(=O)C3C)cc1 (stereo partly drawn) [Example 41, 1-ethyl-3-(4-(4-((S)-3-ethylmorpholino)-7-methyl-6,6-dioxido-5,7-dihydrothieno[3,4-d]pyrimidin-2-yl)phenyl)urea] | < 100 nM | > 10000 nM |  | < 100 nM | 251 nM | 
CCNC(=O)Nc1ccc(-c2nc(N3CCOC[C@@H]3C)c3c(n2)C(C)(C)S(=O)(=O)C3)c(F)c1 [Example 69, (S)-1-(4-(7,7-dimethyl-4-(3-methylmorpholino)-6,6-dioxido-5,7-dihydrothieno[3,4-d]pyrimidin-2-yl)-3-fluorophenyl)-3-ethylurea] | < 100 nM | > 10000 nM |  | < 100 nM | 126 nM | 
CC[C@H]1COCCN1c1nc(-c2ccc(NC(=O)NC3CC3)cc2)nc2c1C(C)S(=O)(=O)C2 (stereo partly drawn) [Example 47, 1-cyclopropyl-3-(4-(4-((S)-3-ethylmorpholino)-5-methyl-6,6-dioxido-5,7-dihydrothieno[3,4-d]pyrimidin-2-yl)phenyl)urea] | 100 to 1000 nM | > 10000 nM |  | < 100 nM | 79.4 nM | 
C[C@H]1COCCN1c1nc(-c2ccc(NC(=O)NC3CC3)cc2)nc2c1CS(=O)(=O)C2(C)F (stereo partly drawn) [Example 43, 1-cyclopropyl-3-(4-(7-fluoro-7-methyl-4-((S)-3-methylmorpholino)-6,6-dioxido-5,7-dihydrothieno[3,4-d]pyrimidin-2-yl)phenyl)urea] | < 100 nM | > 10000 nM |  | < 100 nM | 1000 nM | 

Continued, in another order:

IC50 (mTOR) | IC50 [1] | IC50 [2] | IC50 [3] | IC50 [5] | SMILES | efflux ratio at 1 h, 10 uM [4]
< 100 nM | > 10000 nM | < 100 nM | < 100 nM |  | C[C@H]1COCCN1c1nc(-c2ccc(NC(=O)NC3CC3)cc2)nc2c1CSC2 [Example 1, (S)-1-cyclopropyl-3-(4-(4-(3-methylmorpholino)-5,7-dihydrothieno[3,4-d]pyrimidin-2-yl)phenyl)urea] | 
< 100 nM |  | < 100 nM | < 100 nM |  | C[C@@H]1c2c(nc(-c3ccc(NC(=O)NC4CC4)cc3)nc2N2CCOC[C@@H]2C)CS1(=O)=O (single isomer, unassigned) [Example 9] | 
< 100 nM | > 10000 nM | < 100 nM | < 100 nM |  | C[C@H]1COCCN1c1nc(-c2ccc(NC(=O)NC3CC3)cc2)nc2c1S(=O)(=O)CC2 [Example 5, (S)-1-cyclopropyl-3-(4-(4-(3-methylmorpholino)-5,5-dioxido-6,7-dihydrothieno[3,2-d]pyrimidin-2-yl)phenyl)urea] | 
< 100 nM |  | < 100 nM | < 100 nM |  | C[C@H]1COCCN1c1nc(-c2ccc(NC(=O)NC3CC3)cc2)nc2c1CS(=O)(=O)C2 [Example 2, (S)-1-cyclopropyl-3-(4-(4-(3-methylmorpholino)-6,6-dioxido-5,7-dihydrothieno[3,4-d]pyrimidin-2-yl)phenyl)urea] | 
< 100 nM |  | < 100 nM | < 100 nM |  | C[C@H]1COCCN1c1nc(-c2ccc(NC(=O)NC3CC3)cc2)nc2c1[C@H](C)S(=O)(=O)C2 (single isomer, unassigned) [Example 10] | 
< 100 nM | > 10000 nM |  | < 100 nM |  | CCC1COCCN1c1nc(-c2ccc(NC(=O)NC3CC3)cc2)nc2c1CS(=O)(=O)C2 (stereo not drawn) [Example 27, 1-cyclopropyl-3-(4-(4-(3-ethylmorpholino)-6,6-dioxido-5,7-dihydrothieno[3,4-d]pyrimidin-2-yl)phenyl)urea] | 25
